Assay results as given in patent US12594350B2, “CD8-specific capture agents, compositions, and methods of using and making” (Regeneron Pharmaceuticals, Inc., priority 2016, dated 2026).
Bridge positions count the residues as written; N and C are the ends. Square brackets hold non-standard residues; d marks the D form. Triazole bridges read from a SMILES are 1,4-linked. Ends that are not written are not given here. Peptide text beside a SMILES is read from it. * marks the point of attachment. Biotin = O=C1N[C@H]2[C@H](CS[C@H]2CCCCC(=O)*)N1; Lys(N3) = [N-]=[N+]=NCCCC[C@H](N)C(=O)O; Pra = C#CC[C@H](N)C(=O)O; AEA = NCCOCC(=O)O

How the values were obtained:
[1] = molecular target: His-tagged CD8α human recombinant protein (Homo sapiens, UniProt P01732); assay: CD8 ELISA (affinity assay) of biligands to determine cooperativity; type: binding; design: purchased Origene TP760215; conditions: biotinylated biligand immobilized on NeutrAvidin plate; CD8α titrated 200 to 0 nM; read-out: EC50 against CD8
Description: CD8 ELISA (Affinity assay). […] The plate was then blocked with 2 μM Biotin for 15 min.
This predicts that an optimized linker to covalently join two PCC macrocycles will have a length near 28.2 Å. In FIG. 17 that prediction is validated by testing polyethylene glycol (PEG) linkers of varying lengths. […] This represents a >30-fold improvement in affinity relative to the individual PCC macrocyclic ligands. Shorter or longer linkers yield biligand affinities that, while improved over either of the PCC macrocycles, are about ˜10-fold below that of the optimal linker.

[2] = In vivo PET imaging, PK and biodistribution in normal mice; conditions: normal mouse, intravenous via tail vein, 50-100 μCi
Protocol: In vivo PK of the radiolabeled macrocycle anchors and biligands was visualized and quantitatively determined by PET imaging in normal (healthy) mice. Radiolabeled peptides were formulated in PBS pH 7.4 containing <10% EtOH. 50-100 μCi of radiolabeled peptide was administered intravenously via the tail vein of each mouse. Dynamic (0-1 hour) and static PET imaging was performed to quantify initial peptide biodistribution, time to clear the initial concentration sites, and final excretion route. A CT scan was subsequently acquired for anatomical reference. Imaging was performed on GENISYS8 and Inveon microPET-CT small animal scanners.

human PBMCs = assay: Cellular binding assay of CD8 biligand by flow cytometry; type: cell-based; conditions: human PBMCs co-stained with CD3-APC mAb; biligand 5 μM
Description: Cryopreserved human peripheral blood mononuclear cells (PBMCs) from Zen-Bio (1 donor; #SER-PBMC-F) were thawed using Lymphocyte Medium (#LYMPH-1, Zen-Bio) following the vendor's protocol. Cells were then resuspended in FACS buffer (1× Dulbecco's Phosphate-Buffered Saline+2% Fetal Bovine Serum+2 mM EDTA).
Protocol: A total of 1×10^6 human PBMCs in 50 μL of FACs buffer was incubated with 0.5 μL of Alexa Fluor 488-labeled biligand Cy(HGRGH) (SEQ ID NO: 21)-PEG5-Cy(AKYRG) (SEQ ID NO: 8) (final concentration: 5 μM), 2 μL of human CD3-APC mAb (clone: BW264/56) (#130-098-156, MACS Miltenyi Biotec), and 2.5 μL of 7-AAD Viability Staining Solution (#00-6993, eBioscience) at room temperature for 30 min. […] Data were obtained and analyzed with FACSCalibur and FACSDiva v8.0.1 (BD Biosciences), respectively.
Flow cytometry was used to evaluate biligand detection of cellular CD8. […] Samples were then washed and analyzed for green (CD8; FITC-A) and red (CD3; APC-A) fluorescence. […] The cell populations in Q2 (10.9%) and Q4 (11.6%) were detected by the biligand as CD8+ and are consistent with the % CD8+ cells reported by the vendor. […] The cell populations detected by the CD8-FITC mAb were 11.2% in Q2 and 2.1% in Q4.

Sequence of His-tagged CD8α human recombinant protein (P01732 22-235): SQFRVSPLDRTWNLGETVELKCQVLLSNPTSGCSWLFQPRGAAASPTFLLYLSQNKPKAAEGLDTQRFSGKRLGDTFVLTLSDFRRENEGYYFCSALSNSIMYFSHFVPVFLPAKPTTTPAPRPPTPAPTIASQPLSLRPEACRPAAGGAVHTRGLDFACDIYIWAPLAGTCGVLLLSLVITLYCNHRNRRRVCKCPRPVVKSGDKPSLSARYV

Compound: C[C@H](O)[C@H]1NC(=O)[C@@H](Cc2c[nH]cn2)NC(=O)CNC(=O)[C@@H](N)CCCCn2cc(nn2)C[C@@H](C(=O)N[C@@H](CCCCNC(=O)CCCC[C@@H]2SC[C@@H]3NC(=O)N[C@@H]32)C(=O)NCCOCC(=O)N[C@H]2CCCCn3cc(nn3)C[C@@H](C(N)=O)NC(=O)[C@@H](Cc3c[nH]cn3)NC(=O)CNC(=O)[C@@H](CCCNC(=N)N)NC(=O)CNC(=O)[C@@H](Cc3c[nH]cn3)NC2=O)NC(=O)[C@H]2CCCN2C(=O)[C@@H](Cc2c[nH]c3ccccc23)NC1=O [Cy(Ghtwp)-Lys (Biotin)-PEG1-Cy(hGrGh)] (H-[Lys(N3)]G[dH][dT][dW][dP][Pra]K(Biotin)[AEA][Lys(N3)][dH]G[dR]G[dH][Pra]-NH2; triazole 1-7, 10-16)
- EC50 [1]: 58 pM

Compound: O=Cc1ccc([18F])cc1 [[^18F]FB, 4-[^18F]fluorobenzaldehyde]
- biodistribution and clearance route by PET (in words) [2]: rapid kidney uptake and clearance, then near exclusive bladder occupancy by 30 minutes

Compound: Alexa Fluor 488-labeled biligand Cy(HGRGH)-PEG5-Cy(AKYRG): biligand Cy(HGRGH)-PEG5-Cy(AKYRG) resynthesized with an Alexa Fluor 488 label (not fully specified (bridges); also: PEG5 linker joins the two macrocycles, Alexa Fluor 488 label, site not given here)
- cell population in Q2 detected as CD8+ (human PBMCs): 10.9%
- cell population in Q4 detected as CD8+ (human PBMCs): 11.6%
